How the values were obtained:
[1] = test system: hRBCs versus four bacterial strains; experiment: Prokaryotic selectivity (therapeutic index, HC10/GM); details: ratio of HC10 to GM; 512 µg/mL used for HC10 >256 and 128 µg/mL for MIC >64
Procedure: (§1) The prokaryotic selectivity of our designed HDAMPs is defined by the therapeutic index (TI) as a measure of the relative safety of the drug. It is a measure of a peptide's capability to differentiate any pathogen from a host cell. The TI value of each peptide was calculated as the ratio of the HC10 (the peptide concentration that produces 10% hemolysis toward hRBCs) to the geometric mean [GM; the geometric mean of the minimal inhibitory concentration (MIC) against four selected bacterial strains]. Larger values of TI correspond to greater prokaryotic selectivity.

[2] = test system: S. epidermidis [KCTC 1917]; type: cell-based, Staphylococcus epidermidis; details: KCTC 1917, 20 h
Procedure: (§2) The antimicrobial activity of the peptides against two Gram-positive bacterial strains and two Gram-negative bacterial strains was examined using the broth microdilution method in sterile 96-well plates. Aliquots (100 µL) of a bacterial suspension at 2×10^6 colony-forming units (CFU)/mL in 1% peptone were added to 100 µL of the peptide solution (serial two-fold dilutions in 1% peptone). After incubation for 18−20 h at 37°C, bacterial growth inhibition was determined by measuring the absorbance at 600 nm with a Microplate Autoreader EL 800 (Bio-Tek Instruments, VT). The minimal inhibitory concentration (MIC) was defined as the minimum peptide concentration inhibited bacteria growth. Two types of Gram-positive bacteria (S. epidermidis [KCTC 1917] and S. aureus [KCTC 1621]) and two types of Gram-negative bacteria (E. coli [KCTC 1682] and P. aeruginosa [KCTC 1637]) were procured from the Korean Collection for Type Cultures (KCTC) at the Korea Research Institute of Bioscience and Biotechnology (KRIBB). MRSA samples (CCARM 3089, CCARM 3090, and CCARM 3095) were obtained from the Culture Collection of Antibiotic-Resistant Microbes (CCARM) at Seoul Women's University (Seoul, Korea).

[3] = test system: four bacterial strains (E. coli, P. aeruginosa, S. epidermidis, S. aureus); type: cell-based; details: 20 h
Procedure: as §1, §2

MRSA 2 [CCARM 3090] = type: cell-based, methicillin-resistant Staphylococcus aureus; details: CCARM 3090, 20 h
Procedure: as §2

MRSA 1 [CCARM 3089] = type: cell-based, methicillin-resistant Staphylococcus aureus; details: CCARM 3089, 20 h
Procedure: as §2

MRSA 3 [CCARM 3095] = type: cell-based, methicillin-resistant Staphylococcus aureus; details: CCARM 3095, 20 h
Procedure: as §2

[4] = test system: P. aeruginosa [KCTC 1637]; type: cell-based, Pseudomonas aeruginosa; details: KCTC 1637, 20 h
Procedure: as §2

E. coli [KCTC 1682] = type: cell-based, Escherichia coli; details: KCTC 1682, 20 h
Procedure: as §2

trypsin [5] = experiment: Protease stability by RP HPLC; type: in vitro ADME; details: 5 µL of 10 mg/mL peptide in 25 µL of 0.2-µg/mL trypsin in PBS, 37°C, 0, 0.5, 1.0, 2.0 and 4 h; C18 RP-HPLC, 224 nm
Procedure: Five microliters of an aqueous peptide stock solution (10 mg/mL) were added to 25 µL of the 0.2-µg/mL trypsin solution in PBS, respectively, and incubated at 37°C for 0, 0.5, 1.0, 2.0, and 4 h. The 5-µL solution was taken out at each time interval and immediately frozen with liquid nitrogen. Individually thawed samples were loaded onto a C18 reverse-phase column for HPLC analysis (5 µm; 4.6 mm ×250 mm; Vydac). Peptides were eluted by a 60-min linear gradient of 0–90% (v/v) acetonitrile in water containing 0.05% (v/v) trifluoroacetic acid with a flow rate of 1 mL/min and detection of 224 nm.

S. aureus [KCTC 1621] = type: cell-based, Staphylococcus aureus; details: KCTC 1621, 20 h
Procedure: as §2

[6] = Hydrophobicity by RP-HPLC retention time; type: physicochemical; details: measure of hydrophobicity; Vydac C18 analytical column 5 µm, 4.6 mm ×250 mm; linear gradient 0–90% acetonitrile in water, 0.05% TFA, 60 min
Excerpt: A series of Trp (W)/Arg (R)–rich peptides [(WR)3-NH2, (WR)2-NH2 and RWR-NH2], reported as being short and potent antimicrobial peptides, were used as sequence templates, and their antimicrobial and hemolytic activities were compared to seven HDAMPs (Figure 2). Matrix-assisted laser-desorption ionization time-of-flight mass spectrometry (MALDI-TOF MS) was used to verify the molecular weight of both Trp/Arg-rich AMPs and the seven HDAMPs. Human cathelicidin LL-37, a potent antimicrobial and anti-inflammatory peptide, served as a positive control for comparing the antimicrobial, hemolytic, and anti-inflammatory activities. The hydrophobicity of all of the peptides was measured with the use of reverse-phase high-performance liquid chromatography (RP-HPLC) retention time (Rt).
All peptides were prepared by Fmoc SPPS methods using Rink amide with an initial loading of 0.61 mmol/g, unless otherwise noted. Fmoc-Arg(Pbf)-OH and other Fmoc-protected amino acids were purchased from Novabiochem. Resins were swollen in DMF for 45 min prior to synthesis. […] The final purity and hydrophobicity of the peptides (>98%) were assessed by RP-HPLC on an analytical Vydac C18 column (4.6 mm ×25 0 mm, 300 Å, 5 µm particle size, Table 3). The molecular masses of purified peptides were determined using MALDI-TOF MS (Shimadzu, Japan).

trypsin [7] = experiment: Protease stability by radial diffusion assay; type: in vitro ADME; details: 5 µL of 10 mg/mL peptide in 25 µL of 0.2-µg/mL trypsin in PBS, 37°C, text: 24 h, method: 6 h
Procedure: E. coli (KCTC 1682) was grown overnight for 18 h at 37°C in 10 mL of LB broth, and then 10 µl of this culture was inoculated into 10 mL of fresh LB and incubated for an additional 3 h at 37°C to obtain mid-logarithmic-phase organisms. For the radial diffusion assay method, a bacteria suspension (2×10^6 CFU/mL in LB) was mixed with 0.7% agarose. The mixture was poured into a 10-cm petri dish after rapidly dispersing. Five microliters of an aqueous peptide stock solution (10 mg/mL) were added to 25 µL of the 0.2-µg/mL trypsin solution in PBS, respectively, and incubated at 37°C for 6 h. The reaction was stopped by freezing with liquid nitrogen, and then 10-µL aliquots were placed in each circle paper (≈6 mm in diameter) put on the agarose plates and then incubated at 37°C overnight. The diameters of the bacterial clearance zones surrounding the circle paper were measured for the quantitation of inhibitory activities.

SMILES | TI (HC10/GM), therapeutic index [1] | Minimal Inhibitory Concentration (MIC) S. epidermidis [KCTC 1917] [2] | GM, geometric mean of the MIC values against four bacterial strains [3] | Minimal Inhibitory Concentration (MIC) MRSA 2 [CCARM 3090] (MRSA 2 [CCARM 3090]) | Minimal Inhibitory Concentration (MIC) MRSA 1 [CCARM 3089] (MRSA 1 [CCARM 3089]) | Minimal Inhibitory Concentration (MIC) MRSA 3 [CCARM 3095] (MRSA 3 [CCARM 3095]) | Minimal Inhibitory Concentration (MIC) P. aeruginosa [KCTC 1637] [4] | Minimal Inhibitory Concentration (MIC) E. coli [KCTC 1682] (E. coli [KCTC 1682]) | resistance to proteolysis by trypsin, remaining peptide by RP-HPLC (in words) (trypsin [5]) | Minimal Inhibitory Concentration (MIC) S. aureus [KCTC 1621] (S. aureus [KCTC 1621]) | RP-HPLC retention time (Rt) [6] | antimicrobial activity against E. coli (KCTC 1682) in the presence of trypsin (in words) (trypsin [7])
N=C(N)NCCC[C@H](NC(=O)[C@@H](N)Cc1c[n+](CCCCCCCc2ccccc2)cn1CCCCCCCc1ccccc1)C(N)=O [HDAMP-3] | 6.3 | 2 (3) µg/mL | 3 (4.6). µg/mL | 2 (3) µg/mL | 2 (3) µg/mL | 2 (3) µg/mL | 4 (6.1) µg/mL | 4 (6.1) µg/mL | fully resistant | 2 (3) µg/mL | – | –
N=C(N)NCCC[C@H](NC(=O)[C@H](Cc1c[n+](CCCCCCCc2ccccc2)cn1CCCCCCCc1ccccc1)NC(=O)[C@H](CCCNC(=N)N)NC(=O)[C@@H](N)Cc1c[n+](CCCCCCCc2ccccc2)cn1CCCCCCCc1ccccc1)C(N)=O [Tetrameric HDAMP, His((CH2)7C6H5)2-Arg-His((CH2)7C6H5)2-Arg-NH2] | – | – | – | – | – | – | – | – | – | – | 37.7 min | –
N=C(N)NCCC[C@@H](NC(=O)[C@@H](N)Cc1c[n+](CCCCCCCc2ccccc2)cn1CCCCCCCc1ccccc1)C(N)=O [HDAMP-6] | 8 | 4 (6.1) µg/mL | 3.5 (5.3) µg/mL | 2 (3) µg/mL | 2 (3) µg/mL | 2 (3) µg/mL | 4 (6.1) µg/mL | 4 (6.1) µg/mL | fully resistant | 2 (3) µg/mL | – | –
CC[C@H](C)[C@H](NC(=O)CN)C(=O)NCC(=O)N[C@@H](C)C(=O)N[C@H](C(=O)N[C@@H](CC(C)C)C(=O)N[C@@H](CCCCN)C(=O)N[C@H](C(=O)N[C@@H](CC(C)C)C(=O)N[C@H](C(=O)N[C@H](C(=O)NCC(=O)N[C@@H](CC(C)C)C(=O)N1CCC[C@H]1C(=O)N[C@@H](C)C(=O)N[C@@H](CC(C)C)C(=O)N[C@H](C(=O)N[C@@H](CO)C(=O)N[C@@H](Cc1c[nH]c2ccccc12)C(=O)N[C@H](C(=O)N[C@@H](CCCCN)C(=O)N[C@@H](CCCNC(=N)N)C(=O)N[C@@H](CCCCN)C(=O)N[C@@H](CCCNC(=N)N)C(=O)N[C@@H](CCC(N)=O)C(=O)N[C@@H](CCC(N)=O)C(N)=O)[C@@H](C)CC)[C@@H](C)CC)[C@@H](C)O)[C@@H](C)O)C(C)C)C(C)C [melittin] | – | – | – | – | – | – | – | – | – | – | – | completely lost their antimicrobial activities
CC[C@H](C)[C@H](NC(=O)[C@H](CCCCN)NC(=O)[C@H](CCC(=O)O)NC(=O)[C@H](CCCCN)NC(=O)[C@H](CO)NC(=O)[C@H](CCCCN)NC(=O)[C@H](CCCNC(=N)N)NC(=O)[C@H](Cc1ccccc1)NC(=O)[C@H](Cc1ccccc1)NC(=O)[C@H](CC(=O)O)NC(=O)CNC(=O)[C@H](CC(C)C)NC(=O)[C@@H](N)CC(C)C)C(=O)NCC(=O)N[C@@H](CCCCN)C(=O)N[C@@H](CCC(=O)O)C(=O)N[C@@H](Cc1ccccc1)C(=O)N[C@@H](CCCCN)C(=O)N[C@@H](CCCNC(=N)N)C(=O)N[C@H](C(=O)N[C@H](C(=O)N[C@@H](CCC(N)=O)C(=O)N[C@@H](CCCNC(=N)N)C(=O)N[C@H](C(=O)N[C@@H](CCCCN)C(=O)N[C@@H](CC(=O)O)C(=O)N[C@@H](Cc1ccccc1)C(=O)N[C@@H](CC(C)C)C(=O)N[C@@H](CCCNC(=N)N)C(=O)N[C@@H](CC(N)=O)C(=O)N[C@@H](CC(C)C)C(=O)N[C@H](C(=O)N1CCC[C@H]1C(=O)N[C@@H](CCCNC(=N)N)C(=O)N[C@H](C(=O)N[C@@H](CCC(=O)O)C(=O)N[C@@H](CO)C(=O)O)[C@@H](C)O)C(C)C)[C@@H](C)CC)C(C)C)[C@@H](C)CC [LL-37] | – | – | – | – | – | – | – | – | – | – | – | completely lost their antimicrobial activities

Source: PMC3841161, “De Novo Design and Synthesis of Ultra-Short Peptidomimetic Antibiotics Having Dual Antimicrobial and Anti-Inflammatory Activities” (PLoS ONE, 2013)
